Values quoted from earlier work in patent publication US20240100064A1, “METHODS OF TREATING NEURODEVELOPMENTAL DISORDERS” (Woolsey Pharmaceuticals, Inc., priority 2020, published 2024).
Structures can show the parent of a compound that is named as a salt.

Legend:
[1] = tested on: oligophrenin-1-deficient mice
[2] = in vivo, 1-hydroxy metabolite (Shibuya 2001)
[3] = oligophrenin-1-deficient mice (Allegra et al. 2017)
[4] = oligophrenin-1 deficient mice (Meziane et al. 2016)

Row | half-life [2] | Compound | rescuing axon formation [1, 3] | spine density [1, 3] | hippocampal hyperexcitability ([1]; oligophrenin-1 deficient mice (Busti 2020)) | behavioral changes [1, 4] | brain ventricular enlargement [1, 4]
1 | – | O=S(=O)(c1cccc2cnccc12)N1CCCNCC1 [Fasudil, Hexahydro-1-(5-isoquinolinesulfonyl)-1H-1,4-diazepine monohydrochloride hemihydrate] | not effective | restored | rescue | reverse | reverse
2 | about 8 hours | O=S(=O)(c1cccc2c(O)nccc12)N1CCCNCC1 [M3] | – | – | – | – | –
